{
  "source": "patent US9133260B2",
  "about": "(priority 2005, dated 2015)",
  "key": {"[1]": {"details": "cited from earlier work; for EC(50) inhibition of gastric emptying: subcutaneous, conscious rats, rat weight ~200 g; for inhibition of gastric emptying, in words: at doses of 100 μg"}, "[2]": {"format": "in vivo, NIH/Swiss mice", "details": "for acute food intake, in words: IP at t=0, 30, 60, 120 min", "description": "Peptide was injected IP at t=0.\nPeptide was injected IP at t=0. […] Peptide was injected IP at t=0."}, "[3]": {"test_system": "cardiomyocyte Gs-coupled receptors", "assay": "cAMP production in isolated neonatal cardiomyocytes (HTRF)", "format": "cell-based, rat", "description": "Activation of cardiomyocyte Gs- and Gi-coupled receptors was determined as a measure of cAMP production.\nCell Isolation. Neonatal cardiomyocytes were isolated using a commercially available system. […] Sprague Dawley neonatal rats (1-2 days old) were decapitated and the beating heart dissected out into digestion buffer (Cellutron D1 buffer) to dissociate cells. […] The resuspended cells incubated in buffer (Cellutron D3 buffer) for sufficient time to allow optimal dispersion and minimize the need for pipetting to break up clumps. Cells released from the first 2 digestions were discarded since a significant portion of these is red blood cells. Resuspended cells were filtered and allowed to pre-plate for 1 hour on plastic in an incubator in NS media (Cellutron, NJ) in order to remove fibroblasts. After 1 hour of pre-plating, floating cells are removed and the flask rinsed with NS media. The floating cells and the cells in the rinse media were combined and counted. Residual red blood cells, which are smaller that the cardiac myocytes, were not counted.\nCell Plating. […] At Day 1, the NS media was replaced with fresh NS media.\ncAMP Assay. […] Dose response was determined.\nFor Gs assays the positive control was 10 uM forskolin and negative control was buffer. For Gi assays the positive control was buffer and the negative control was 10 uM forskolin."}, "[4]": {"assay": "Basal glucose lowering in 2-hour fasted NIH/Swiss mice", "format": "in vivo", "details": "for basal glucose lowering (% maximal decrease): mouse, in vivo", "procedure": "(§1) In FIG. 3A, bars represent mean±sd, n=6-10. Peptide was injected IP at t=−5 into overnight-fasted NIH/Swiss mice. Gavage (1.5 g/kg) was given at t=0. Sample was taken at t=30 min. […] In FIG. 3B, points represent mean±sem, n=8-15. Peptide was injected IP at t=0 immediately following baseline sample into 2-hour fasted NIH/Swiss mice. Samples were taken at t=60, 120, and 180 minutes. […] Compound G has both an N-terminal modification providing DPP-IV resitance and a C-terminal Trp-cage shield.\nPoints represent mean±sem. Peptide was injected IP at t=0 immediately following baseline sample into 2-hour fasted NIH/Swiss mice. Samples were taken at t=60, 120, 180 and 240 minutes.\nFIGS. 8A and 8b provide a result of one such study. Points represent mean±sem. Peptide was injected IP at t=0 immediately following baseline sample into 2-hour fasted NIH/Swiss mice. Samples were taken at t=60, 120, 180 and 240 minutes."}, "[5]": {"assay": "Intravenous glucose tolerance test (IVGTT assay)", "format": "in vivo, rats", "details": "100 pmol/kg/min infusion; for insulinotropic response to an intravenous glucose challenge: anesthetized HSD male rats", "procedure": "All three analogs produced a significant lowering of the glucose excursion in response to the glucose challenge (data not shown). As described, fed, isoflurane anesthetized HSD male rats were intubated and cannulated via femoral artery and vein and allowed to stabilize for 1 hour. […] At t=0, an i.v. bolus of 5.7 mmol/kg D-glucose was administered over 2 minutes. Samples for glucose measurement and insulin concentrations were taken at various time points before and after (0 to 90 minutes) glucose infusion."}, "[6]": {"assay": "Oral glucose tolerance test (OGTT)", "format": "in vivo, NIH/Swiss mice", "details": "decrease in the OGTT assay", "procedure": "as §1\nIn FIG. 13B bars represent mean+/−sd. Peptide was injected IP at t=−5 minutes into 4-hour fasted NIH/Swiss female mice. Gavage (1.5 g/kg) was given at t=0. […] In FIG. 17 points represent mean+/−sem. Peptide was injected IP at t=) immediatley following baseline sample into 2-hour fasted NIH/Swiss mice. Samples were taken at t=60, t=120 and t=180. […] In one embodiment for each of these GIP hybrids a Gly linker is used, e.g. GlyGlyGly."}, "[7]": {"assay": "Glucose lowering in diabetic db/db mice", "format": "in vivo", "details": "IP; GIP at a 10 fold higher dose", "description": "Peptide was injected IP at t=0 immediately following baseline sample into 2-hour fasted db/db mice."}, "[8]": {"assay": "Circulatory system effects in conscious rats by telemetry", "format": "in vivo", "details": "80 nmol/kg intravenous", "procedure": "The experiments were performed during the light cycle. Telemetry allows for real-time hemodynamic readings including arterial blood pressure, heart rate and arterial dP/dt, via an implanted radio transmitter in conscious, non-anesthetized, unrestrained rats. […] Remote intravenous dosing was achieved through in-dwelling vascular access ports (Access Technologies (Skokie, Ill.). The port is secured to the underlying muscle just below the skin between the scapulae. The catheter resides in the jugular vein. Data were collected for up to 60 minutes following injection."}, "[9]": {"assay": "Body weight in diet-induced-obesity (DIO) mice", "format": "in vivo, C57BL/6 mice", "details": "for body weight change in diet-induced-obese mice: infused via osmotic pump for 2 weeks"}, "relevant receptors": {"biological_target": "relevant receptors", "assay": "Cyclase, table of GIP/amylin-sCT hybrids", "format": "biochemical", "details": "receptor and unit inferred"}},
  "note": "Entries after “also recorded” stand apart in the source; their conditions may differ. Like-named read-outs stand apart in the source and are kept apart here. Ends that are not written are not given here.",
  "data": [
    {"substance": "CSNLSTCVLGKLSQELHKLQTYPRTNTGSGTP [Salmon calcitonin]", "values": [
      {"measurement": "EC(50) inhibition of gastric emptying", "setting": "[1]", "value": 0.19, "unit": "µg"}
    ]},
    {"substance": "DY(SO3) MGWMDF-NH2 [CCK-8]", "values": [
      {"measurement": "60 min ED50", "setting": "[2]; mouse, in vivo", "value": 26, "unit": "nmol/kg"},
      {"measurement": "EC(50) inhibition of gastric emptying", "setting": "[1]", "value": 2.93, "unit": "µg"}
    ]},
    {"substance": "Gastrin releasing peptide: gastrin releasing peptide (VPLPAGGGTVLTKMYPRGNHWAVGHLM-NH2; ends and bridges not checked; UniProt P07492 24-50, looked up)", "values": [
      {"measurement": "EC(50) inhibition of gastric emptying", "setting": "[1]", "value": 28.5, "unit": "µg"}
    ]},
    {"substance": "HAEGTFTSDVSSYLEGQAAKEFIAWLVKGR-NH2 [GLP-1]", "values": [
      {"measurement": "cAMP activity in cardiomyocytes, in words", "setting": "[3]", "value": "very low to no significant activity"},
      {"measurement": "EC(50) inhibition of gastric emptying", "setting": "[1]", "value": 1.82, "unit": "µg"}
    ]},
    {"substance": "HGEGAFTSDLSKQLEEEAVRLFIEFLKN-NH2 [Exendin-4 (1-28) [Ala5, Leu14, Phe25]]", "values": [
      {"measurement": "60 min ED50", "setting": "[2]; mouse food intake at 60 min", "value": 13, "unit": "nmol/kg"}
    ]},
    {"substance": "KCNTATCATQRLANFLVHSSNNFGAILSSTNVGSNTY [Human amylin]", "values": [
      {"measurement": "EC(50) inhibition of gastric emptying", "setting": "[1]", "value": 0.15, "unit": "µg"}
    ]},
    {"substance": "KCNTATCATQRLANFLVRSSNNLGPVLPPTNVGSNTY-NH2 [Rat Amylin]", "values": [
      {"measurement": "acute food intake, in words", "setting": "[2]", "value": "significant decrease in food intake within 30 min"},
      {"measurement": "60 min ED50", "setting": "[2]; mouse food intake at 60 min", "value": 9, "unit": "nmol/kg"},
      {"measurement": "EC(50) inhibition of gastric emptying", "setting": "[1]", "value": 0.18, "unit": "µg"}
    ]},
    {"substance": "PACAP38: pituitary adenylate cyclase activating peptide (PACAP38) (HSDGIFTDSYSRYRKQMAVKKYLAAVLGKRYKQRVKNK-NH2; ends and bridges not checked; UniProt P18509 132-169, looked up)", "values": [
      {"measurement": "inhibition of gastric emptying, in words", "setting": "[1]", "value": "weakly active or inactive"}
    ]},
    {"substance": "Rat CGRP: rat calcitonin gene related peptide (SCNTATCVTHRLAGLLSRSGGVVKDNFVPTNVGSEAF; ends and bridges not checked; cysteine pairing not given here; UniProt P01256 83-119, looked up)", "values": [
      {"measurement": "EC(50) inhibition of gastric emptying", "setting": "[1]", "value": 1.62, "unit": "µg"}
    ]},
    {"substance": "Rat calcitonin: rat calcitonin, peptide compared for inhibition of gastric emptying (CGNLSTCMLGTYTQDLNKFHTFPQTSIGVGAP; ends and bridges not checked; cysteine pairing not given here; UniProt P01257 85-116, looked up)", "values": [
      {"measurement": "EC(50) inhibition of gastric emptying", "setting": "[1]", "value": 0.64, "unit": "µg"}
    ]},
    {"substance": "Secretin: gut peptide hormone secretin", "values": [
      {"measurement": "EC(50) inhibition of gastric emptying", "setting": "[1]", "value": 1.87, "unit": "µg"}
    ]},
    {"substance": "Y(D-Ala)EGTFISDYSIAMDKIHQQDFVNWLLAQKGKKNDWKHNITQ-OH [Compound 0601GIP4042]", "values": [
      {"measurement": "basal glucose lowering (% maximal decrease)", "setting": "[4]", "value": "−11", "unit": "%"},
      {"measurement": "insulinotropic response to an intravenous glucose challenge", "setting": "[5]", "value": "significant enhancement of the insulinotropic response"}
    ]},
    {"substance": "YAEGTFISDYSIAMDKIHQQDFVNWLLAQKGKKNDWKHNITQ-OH [GIP]", "values": [
      {"measurement": "acute food intake, in words", "setting": "[2]", "value": "did not acutely inhibit food intake"},
      {"measurement": "OGTT response", "setting": "[6]", "value": "−10", "unit": "%"},
      {"measurement": "glucose lowering in diabetic db/db mice, in words", "setting": "[7]", "value": "modest and wanes over time"},
      {"measurement": "insulin levels prior to the glucose challenge", "setting": "[5]", "value": "significant rise in insulin levels"},
      {"measurement": "insulinotropic response to an intravenous glucose challenge", "setting": "[5]", "value": "significant enhancement of the insulinotropic response"},
      {"measurement": "dP/dt", "setting": "[8]", "value": "increased dP/dt similarly"},
      {"measurement": "heart rate", "setting": "[8]", "value": "chronotropic (heart rate elevating) effect"},
      {"measurement": "mean arterial pressure", "setting": "[8]", "value": "had no effect"},
      {"measurement": "body weight change in diet-induced-obese mice", "setting": "[9]", "value": "had no effect on body weight change"},
      {"measurement": "inhibition of gastric emptying, in words", "setting": "[1]", "value": "weakly active or inactive"}
    ]},
    {"substance": "YAEGTFISDYSIAMDKIHQQDFVNWLLAQKPSSGAPPPS [Compound 1]", "values": [
      {"measurement": "EC50", "setting": "relevant receptors", "value": 519, "unit": "nM"}
    ]},
    {"substance": "YaEGTFISDYSIAMDKIHQQDFVNWLLAQKPSSGAPPPS-NH2 [Compound 0601GIP3794]", "values": [
      {"measurement": "acute food intake, in words", "setting": "[2]", "value": "did not acutely inhibit food intake"},
      {"measurement": "glucose lowering in normal NIH/Swiss mice, in words", "setting": "[4]; IP, samples 60-240 min, listed as Compound G", "value": "significantly more efficacious than full length GIP; also recorded: gradually increasing activity that peaks at t=120 min"},
      {"measurement": "basal glucose lowering (% maximal decrease)", "setting": "[4]", "value": "−20", "unit": "%"},
      {"measurement": "OGTT response", "setting": "[6]", "value": "−21", "unit": "%"},
      {"measurement": "glucose lowering in diabetic db/db mice, in words", "setting": "[7]", "value": "pronounced and long-acting effect in lowering glucose"},
      {"measurement": "insulin levels prior to the glucose challenge", "setting": "[5]", "value": "significant rise in insulin levels"},
      {"measurement": "insulinotropic response to an intravenous glucose challenge", "setting": "[5]", "value": "significant enhancement of the insulinotropic response"},
      {"measurement": "EC50", "setting": "[3]; experiment of FIGS. 18A/18B, read-out: EC50, cAMP production in cardiomyocytes", "value": 11.7, "unit": "nM"},
      {"measurement": "EC50", "setting": "[3]; from three independent experiments, read-out: EC50, cardiomyocyte Gs-coupled receptor activation", "value": 29.8, "unit": "nM"},
      {"measurement": "dP/dt", "setting": "[8]", "value": "increased dP/dt similarly"},
      {"measurement": "heart rate", "setting": "[8]", "value": "transient relative to GIP"},
      {"measurement": "mean arterial pressure", "setting": "[8]", "value": "decreased mean arterial pressure"},
      {"measurement": "systolic and diastolic pressures", "setting": "[8]", "value": "sustained lowering of systolic and diastolic pressures"},
      {"measurement": "body weight change in diet-induced-obese mice", "setting": "[9]", "value": "without a concomitant reduction in body weight"},
      {"measurement": "body composition", "setting": "[9]; mouse, in vivo", "value": "slight decrease in percentage body fat with an increase in body protein"}
    ]},
    {"substance": "adrenomedullin: amylin family peptide hormone adrenomedullin (YRQSMNNFQGLRSFGCRFGTCTVQKLAHQIYQFTDKDKDNVAPRSKISPQGY; ends and bridges not checked; cysteine pairing not given here; UniProt P35318 95-146, looked up)", "values": [
      {"measurement": "inhibition of gastric emptying, in words", "setting": "[1]", "value": "weakly active or inactive"}
    ]},
    {"substance": "glucagon: peptide hormone glucagon", "values": [
      {"measurement": "inhibition of gastric emptying, in words", "setting": "[1]", "value": "weakly active or inactive"}
    ]},
    {"substance": "insulin: insulin (tested with plasma glucose maintained constant)", "values": [
      {"measurement": "inhibition of gastric emptying, in words", "setting": "[1]", "value": "weakly active or inactive"}
    ]},
    {"substance": "neuropeptide Y: neuropeptide Y", "values": [
      {"measurement": "inhibition of gastric emptying, in words", "setting": "[1]", "value": "weakly active or inactive"}
    ]},
    {"substance": "vasoactive intestinal peptide: vasoactive intestinal peptide (VIP) (HSDAVFTDNYTRLRKQMAVKKYLNSILN; ends and bridges not checked; UniProt P01282 125-152, looked up)", "values": [
      {"measurement": "inhibition of gastric emptying, in words", "setting": "[1]", "value": "weakly active or inactive"}
    ]}
  ]
}
